Data set [1] is described as follows: In vitro release of BBA by dialysis method. Type of data set: physicochemical. The following applies: during the first 24 h, PBS with 0.5% Tween 80, pH 7.4, 37 °C. As for the experimental part:
Release of BBA from BBA/CM-β-CD and BBA/FA-PEG-CM-β-CD was investigated in vitro using the dialysis method. […] At different time points (0.25, 0.5, 1, 2, 3, 4, 6, 8, 12, 48, 72 and 96 h), 1.0 mL of release medium was removed and replaced with fresh medium.

The subject of the next data set is CaCo-2 cells. The experiment in a line: MTT cell-growth inhibition. Type of data set: cell-based, human. The following applies: 24 h, 48 h, 72 h, 5-FU at 20 μg/mL. As for the experimental part: (§1) CaCo-2 and SW620 cells were used as model cells to evaluate the anticancer effects in vitro. Single-cell suspension was prepared with DMEM containing 10% Gibco FBS and 1% penicillin–streptomycin. The cells were seeded in a 96-well plate (3500 cells/well) and incubated respectively for 24 h, 48 h, and 72 h at 37 °C with 5% CO2. […] The medium was removed, and cells were washed three times with PBS before incubation with MTT for 4 h at 37 °C. After the medium was removed, 100 μL of DMSO was added to the well for 10 min. The absorbance of the solution was measured at 570 nm by Multimode Reader (Bio Tek Synergy H1).

Data set [2] has as its system SW620 cells. The experiment in a line: MTT cell-growth inhibition. Type of data set: cell-based, human. The following applies: 24 h, 48 h, 72 h, 5-FU at 20 μg/mL. As for the experimental part: as §1
The test system of data set [3] is SW620 cells. Nature of the data set: Cell apoptosis, Annexin V/PI flow cytometry. Type of data set: cell-based, human. The following applies: 30 μM, 48 h. The protocol:
For the cell apoptosis detection, the cells in the different groups were washed three times with PBS and incubated with Annexin V-FITC solution for 10 min. Then, flow cytometry analysis was performed to detect the FITC and PI fluorescent intensity and report the percentage of the cell population within each plot quadrant.
A general note: A flow cytometer gives signals particle by particle.

For data set [4], the system named is SW620 cells. Nature of the data set: Cell cycle analysis, propidium iodide flow cytometry. Type of data set: cell-based, human. The following applies: 48 h. As for the experimental part: For the cell cycle analysis, the cells in the different groups were washed three times with PBS and incubated with 1 mL of pre-cooled 70% alcohol at 4 °C for 24 h. After the cells were fixed, centrifuged at 300 × g for 5 min to collect the cells. 1 mL of cold PBS was added to re-suspend the cells and centrifuged at 300 × g for 5 min to remove the supernatant. 10 μL of RNaseA (50 ×) and 25 μL of propidium iodide (20 ×) in 0.5 mL of buffer were added. Finally, flow cytometry was used for cell cycle detection.

The test system of another data set is Kunming mice. Type of data set: in vivo. The note with it: for Bodyweight End: end of 14 d observation; for Amount (start/end), survival: observed 14 d. The protocol:
All animals were given a single oral gavage of 0.2 mL of different dosage forms, and their body weight was monitored every day. Meanwhile, the toxicity and mortality of all animals were observed every day. The conventional changes such as the cases of the diet, urine, and feces were recorded. On the 15th day after treatment, the blood of each group was collected from the heart and centrifuged at 1,000 × g for 10 min to collect serum. An automated biochemical analyzer was used to detect serum alanine aminotransferase (ALT), aspartate aminotransferase (AST), blood urea nitrogen (BUN), and creatinine (Cr). Meanwhile, the heart, liver, lung, and kidney were quickly excised, washed with normal saline, and weighed. The visceral index is estimated according to the following formula as Viscera Index (%) = Viscera Weight / Body Weight × 100. And then, all the tissues were fixed with 10% formalin and stained with hematoxylin & eosin (H&E) for pathological analysis.

Data set [5] in a line: Pharmacokinetics: butyric acid in plasma after gavage. The following applies: gavage 0.366 g/kg. Type of data set: in vivo, SW620 tumor-bearing BALB/C nude mice. The protocol:
SW620 tumor-bearing mice were randomly divided into 3 groups (n = 5). […] The blood was collected respectively from the heart at 0.25, 0.5, 1, 2, 3, 4, 6, 8, 12, 24, 36, 48, and 72 h after administration. The whole blood was quickly centrifuged at 2000 × g for 5 min, and the upper plasma was precisely aspirated. Then 0.35 mL of methanol was added, vortexed for 2 min, and centrifuged at 3350 × g for 15 min. The supernatant was used to detect butyric acid by HPLC [45]. The pharmacokinetic parameters were calculated by non-compartmental analysis using Drug Analysis System (DAS 2.1.1, Shanghai, China).

Data set [6] relates to SW620 xenografts. The experiment in a line: Pharmacodynamic evaluation, tumor growth inhibition. The class given is in vivo, BALB/C nude mice. The note with it: every two days for 7 times, tumor weight on day 25 post-implantation. The protocol:
Ten days after tumor transplantation, the SW620 tumor-bearing mice were randomly divided into 8 groups with 5 mice in each group when the tumors reached about 100 mm^3. The animals were weighed before treatment, and the measurement was continued every 2 days. The two axes of the tumor were measured with a vernier micrometer (L, longest axis; W, shortest axis). Tumor volume (mm^3) was calculated as ½ (L × W^2). Anti-tumor activity was evaluated by tumor growth inhibition (TGI), which was the mean tumor weight (MTW) of the treated group (TG) relative to the saline-treated control group (CG) on day 15, as calculated according to the formula [47]. […].

Data set [7] relates to SW620 xenografts. Nature of the data set: H&E pathological analysis of tumor tissue (necrosis rate). Type of data set: in vivo, nude mice. The note with it: 15 days post-administration. The protocol:
(§2) 15 days post-administration, all nude mice were sacrificed. The tumor tissues were collected, stained with H&E, and observed under an inverted microscope (400 ×). In addition, the TUNEL test was performed to detect cell apoptosis. Meanwhile, the expressions of both VEGFR-3 and Ki-67 were detected by ELISA.

Data set [8] relates to SW620 xenografts. Nature of the data set: TUNEL test of tumor tissue (apoptosis rate). The class given is in vivo, nude mice. The note with it: 15 days post-administration. The protocol:
as §2

The next data set deals with VEGFR-3. The experiment in a line: VEGFR-3 expression in tumor tissue. Type of data set: in vivo, nude mice. The note with it: tumor tissue of SW620 xenografts. The protocol:
as §2

A further data set relates to Ki-67. Nature of the data set: Ki-67 expression in tumor tissue. The class given is in vivo, nude mice. The note with it: tumor tissue of SW620 xenografts. The protocol: as §2
Data set [9] is described as follows: Solubility observed during carrier synthesis. The note with it: water. The class given is physicochemical.
The mark [10] stands for this setting: Kunming mice, before single oral gavage.
Where [11] appears, read: Kunming mice, single oral gavage.
The mark [12] stands for this setting: serum, Kunming mice, 15th day after single oral gavage.

Like-named read-outs stand apart in the source and are kept apart here. Marks after values point to notes of the source that are not given here.

As to “2-butyryl oxy-5-butylaminyl benzoic acid [BBA]”, in data set [1], the “in vitro accumulative release of BBA” value was 90%. For the same molecule, the cell-proliferation inhibition effect result with CaCo-2 cells is given as “some cell-proliferation inhibition effect”. Further, the cell-proliferation inhibition effect result in the data set on SW620 cells [2] is “some cell-proliferation inhibition effect”. Further, the “apoptotic rate including early apoptosis and late apoptosis” value in the data set with SW620 cells [3] was 32.21% ± 8.26%. The cell cycle arrest entry in the data set with SW620 cells [4] is “mainly arrested at the G0/G1 phase”. Also, in the data set with Kunming mice (setting [10]), the “Bodyweight Start” value is 18.48 ± 0.63 g. For the same molecule, in the data set on Kunming mice (setting [11]), the “Bodyweight End” value is recorded as 18.16 ± 0.63 g and the “Amount (start/end), survival” value is 5/5. Further, in the data set with Kunming mice (setting [12]), the ALT stood at 18.53 ± 0.65 U/L, the AST is listed as 57.27 ± 10.20 U/L, the BUN stood at 6.32 ± 0.97 mmol/L and the Cr stood at 8.63 ± 1.96 µmol/L. For the same molecule, in data set [5], the AUC0-t is 219.263 ± 5.360 µg·h/mL, the CL came out at 0.21267 ± 0.00447 mL/min/kg, the Cmax came out at 35923 ± 826 ng/mL and the MRT0-t is 4.769 ± 0.115 h. Moreover, the “mean tumor inhibitory rate” value with SW620 xenografts [6] is listed as 41.76% ± 7.56%. For the same molecule, the average necrosis rate in the data set on SW620 xenografts [7] was determined as 20%. For the same molecule, the “apoptosis rate (TUNEL)” value with SW620 xenografts [8] is recorded as 3.27%. For the same molecule, the VEGFR-3 positive area entry with VEGFR-3 is on record as “significantly reduced”.

`Nc1ccc(O)c(C(=O)O)c1` [5-ASA, 5-aminosalicylic acid]: the “Amount (start/end), survival” value with Kunming mice (setting [11]) was 5/5. Also, in the data set on Kunming mice (mouse, in vivo, po), the ALT is reported as 23.20 ± 2.87 U/L, the “Average weight change rate” value stood at 4.63%, the “Bodyweight Start” value came to 18.58 ± 0.41 g and the Cr stood at 9.55 ± 0.36 µmol/L. The “mean tumor inhibitory rate” value with SW620 xenografts [6] is reported as 31.33% ± 7.17%. The molecule further showed an average necrosis rate in the data set on SW620 xenografts [7] of 15%. Besides, the “apoptosis rate (TUNEL)” value with SW620 xenografts [8] worked out at 2.44%. The VEGFR-3 positive area entry in the data set on VEGFR-3 is reported as “significantly reduced”.

Take `O=c1[nH]cc(F)c(=O)[nH]1` [5-FU, 5-fluorouracil]: the cell-proliferation inhibition effect entry in the data set with CaCo-2 cells is reported as “drastically enhanced the cell proliferation inhibition rate compared with the BBA group”. In addition, the cell-proliferation inhibition effect result in the data set with SW620 cells [2] was “drastically enhanced the cell proliferation inhibition rate compared with the BBA group”. The “Amount (start/end), survival” value with Kunming mice (setting [11]) was 5/5. Moreover, the “serum biochemical analysis indexes” value with Kunming mice (mouse, in vivo) is “AST and ALT increased significantly”. Moreover, in the data set with Kunming mice (mouse, in vivo, po), the ALT is 292.50 ± 6.60 U/L, the AST amounted to 254.00 ± 53.4 U/L, the “Average weight change rate” value is listed as “− 4.46* %” and the BUN amounted to 6.92 ± 1.20 mmol/L. Also, in the data set on Kunming mice (mouse, in vivo, po), the “Bodyweight Start” value amounted to 18.82 ± 0.61 g, the Cr was 7.45 ± 2.91 µmol/L, the Heart index is listed as 0.81 ± 0.28% and the Lung index worked out at 0.85 ± 0.11%. Further, the “decrease of average body weight” value with Kunming mice (mouse, in vivo, po) worked out at 4.46%. For the same molecule, the “mean tumor inhibitory rate” value in the data set on SW620 xenografts [6] is listed as 85.85% ± 2.89%. In the data set on SW620 xenografts [7], this molecule showed an average necrosis rate of 50%. For the same molecule, the “apoptosis rate (TUNEL)” value in the data set on SW620 xenografts [8] is 8.87%. For the same molecule, the VEGFR-3 positive area result with VEGFR-3 is reported as “significantly reduced”. In addition, the Ki-67 positive expression result in the data set with Ki-67 is “significant decrease of the positive expression”.

As for `Nc1nc2ncc(CNc3ccc(C(=O)N[C@@H](CCC(=O)O)C(=O)O)cc3)nc2c(=O)[nH]1` [FA, Folic acid], the solubility result in [9] is “too poor”.

Turning to `CCCC(=O)[O-].[Na+]` [NaB, sodium butyrate], the “Bodyweight Start” value with Kunming mice (setting [10]) was determined as 18.24 ± 0.53 g. In addition, in the data set on Kunming mice (setting [11]), the “Bodyweight End” value turned out to be 19.14 ± 0.52 g and the “Amount (start/end), survival” value is 5/5. The “Average weight change rate” value in the data set with Kunming mice (Kunming mice, single oral gavage, start to end) stood at 4.93%. In the data set on Kunming mice (setting [12]), this molecule registered an ALT of 17.37 ± 1.77 U/L, an AST of 58.17 ± 4.75 U/L and a BUN of 8.60 ± 0.98 mmol/L. Besides, in the data set with SW620 xenografts [6], the “mean tumor inhibitory rate” value was 15.30% ± 5.61%. For the same molecule, in the data set with SW620 xenografts [7], the average necrosis rate stood at 10%. Also, the “apoptosis rate (TUNEL)” value in the data set with SW620 xenografts [8] is listed as 1.45%. For the same molecule, the VEGFR-3 positive area entry with VEGFR-3 was “significantly reduced”.

As a reminder, the Cmax is the peak of the concentration-time curve.

For the origin of these results see PMC8524854, “A novel dual-prodrug carried by cyclodextrin inclusion complex for the targeting treatment of colon cancer” (Journal of Nanobiotechnology, 2021).
